Measurements from paper PMC12660299, “Isoliquiritigenin Attenuates Staphylococcus aureus Adhesion and Invasion to Counteract Staphylococcus aureus Pathogenicity and Infection” (Frontiers in Cellular and Infection Microbiology, 2025).

Target: T1, sortase A (SrtA) (Staphylococcus aureus, UniProt Q2FV99)
T1 construct: recombinant SrtAΔN59
Assay: FRET peptide-cleavage assay with purified recombinant SrtA; supported by fluorescence quenching (Ka = […] L/mol) and reversibility by dilution
Format: biochemical

T1 sequence (Q2FV99 60-206): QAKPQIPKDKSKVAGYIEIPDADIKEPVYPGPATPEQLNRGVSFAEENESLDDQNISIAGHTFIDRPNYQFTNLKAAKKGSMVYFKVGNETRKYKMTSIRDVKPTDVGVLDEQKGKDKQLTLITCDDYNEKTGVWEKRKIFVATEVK

O=C(/C=C/c1ccc(O)cc1)c1ccc(O)cc1O [ISL, isoliquiritigenin]
IC50: 52.1 µM
